Values joined by “and” are separate entries in the source; they are usually repeats but may differ in a detail not shown here. Equal values may be shown once.
Tests used:
dengue virus type 2 [1] = assay: Functional CPE-based assay to measure dose dependent changes in antiviral-drug inhibitory efficacy against Dengue virus type 2 New Guinea C in Huh7 cells. Cells are treated with antiviral candidates that are serially diluted. EC50 is reported via analysis of MTT/MTS assay as a readout of CPE. The assay has been performed by National Institute of Allergy and Infectious Diseases.; type: organism-based, Homo sapiens; settings: Huh-7
dengue virus type 2 [2] = assay: Functional assay to measure dose dependent changes in antiviral-drug inhibitory efficacy against Dengue virus type 2 New Guinea C in Vero E6 miRFP670 cells (cotreated with P-gp inhibitor, CP100356). Cells are treated with antiviral candidates that are serially diluted, following infection, cells are fixed. EC50 is reported via analysis of fluorescence intensity using high-content imager. The …; type: organism-based, Chlorocebus sabaeus, Vero C1008; settings: for EC90: P-gp concentration 500 nM, P-gp inhibitor CP100356
Zika virus [3] = assay: (§1) Functional CPE-based assay to measure dose dependent changes in antiviral-drug inhibitory efficacy against Zika virus MR766 in Vero E6 miRFP670 cells (cotreated with P-gp inhibitor, CP100356). Cells are treated with antiviral candidates that are serially diluted. EC50 is reported via analysis of MTS assay as a readout of CPE. The assay has been performed by KU Leuven.; type: organism-based, Chlorocebus sabaeus, Vero C1008; settings: Zika virus, Vero C1008
dengue virus type 2 [4] = assay: (§2) Functional immunofluorescence assay to measure dose dependent changes in antiviral-drug inhibitory efficacy against Dengue virus type 2 Thailand/16681/84 in Vero E6/TMPRSS2 cells (cotreated with P-gp inhibitor, Elacridar). Cells are treated with antiviral candidates that are serially diluted, following infection, cells are fixed. EC50 is reported via analysis of immunofluorescence staining. The assay has been performed by Icahn School of Medicine at Mount Sinai.; type: organism-based, Chlorocebus sabaeus, VeroE6/TMPRSS2; settings: for EC90: Baseline response 0 %, Maximum response 100 %, P-gp concentration 2 uM, P-gp inhibitor Elacidar
Zika virus [5] = assay: EC50 is reported via analysis of immunofluorescence staining. The assay has been performed by Icahn School of Medicine at Mount Sinai.; type: functional, organism-based, Chlorocebus sabaeus, VeroE6/TMPRSS2; settings: for EC90: P-gp concentration 2 uM, P-gp inhibitor Elacidar
Zika virus [6] = assay: as §2, with “Zika” for “Dengue”, “PRVABC59” for “type 2 Thailand/16681/84”, “cells.” for “cells (cotreated with P-gp inhibitor, Elacridar).”; type: organism-based, Chlorocebus sabaeus; settings: for EC50: VeroE6/TMPRSS2
Zika virus [7] = assay: as §1, with “cells.” for “cells (cotreated with P-gp inhibitor, CP100356).”; type: organism-based, Chlorocebus sabaeus, Vero C1008; settings: Zika virus
dengue virus type 2 [8] = assay: as §2, with “cells.” for “cells (cotreated with P-gp inhibitor, Elacridar).”; type: organism-based, Chlorocebus sabaeus; settings: for EC50: VeroE6/TMPRSS2; for EC90: VeroE6/TMPRSS2, Baseline response 0 %, Maximum response 100 %

Q: Which EC50 (dengue virus type 2 [1]) does the source give for `CCCCCC(=O)N[C@H](C(=O)Nc1ccc(C(N)=O)cc1)c1ccc(OCc2ccccc2)cc1` here?
A: The EC50 was greater than 32 µM.

Q: `Cc1ccc(NC(=O)c2cc(Cl)cc(NC(=O)OCc3ccccc3)c2)cc1CN` was tested. Which EC90 (dengue virus type 2 [2]; Baseline response 0 %, EC90 CI (lower) 0 uM, EC90 CI (upper) Could not be calculated, confidence interval too large, Hill slope -15.095, Maximum measured 108.434 %, Maximum response 100 %, Minimum measured 1.527 %, R squared 0.917) did it give?
A: Its EC90 is 3.71 µM.

Q: What about the EC90 (dengue virus type 2 [2]; Baseline response 0 %, Hill slope -19.938, Maximum measured 107.168 %, Maximum response 100 %, Minimum measured 6.341 %, R squared 0.876) of the same molecule?
A: The EC90 was 1.73 µM.

Q: What about the EC50 (dengue virus type 2 [2]; vero c1008) of the same molecule?
A: The EC50 was 3.21 µM and 1.55 µM.

Q: And the EC50 (Zika virus [3])?
A: The EC50 was 2.61 µM.

Q: What about the EC90 (Zika virus [3]; Baseline response 0 %, Hill slope 6.556, Maximum measured 76.39 %, Maximum response 100 %, Minimum measured 1.967 %, P-gp concentration 500 nM, R squared 0.915, P-gp inhibitor CP100356) of the same molecule?
A: Its EC90 is greater than 3.12 µM.

Q: What about the EC50 (dengue virus type 2 [4]; Dengue virus, VeroE6/TMPRSS2) of the same molecule?
A: Its EC50 is 0.532 µM.

Q: And the EC90 (dengue virus type 2 [4]; Dengue virus, VeroE6/TMPRSS2, Hill slope -0.692, Maximum measured 108.544 %, Minimum measured 11.231 %, R squared 0.808)?
A: Its EC90 is greater than 5.56 µM.

Q: What about the EC90 (Zika virus [5]; Zika virus, VeroE6/TMPRSS2, Maximum measured 108.754 %, Minimum measured 39.323 %) of the same molecule?
A: Its EC90 is greater than 5.56 µM.

Q: What about the EC90 (Zika virus [5]; Zika virus, VeroE6/TMPRSS2, Baseline response 0 %, Hill slope -0.897, Maximum measured 104.466 %, Maximum response 100 %, Minimum measured 2.423 %, R squared 0.573) of the same molecule?
A: Its EC90 is greater than 5.56 µM.

Q: What about the EC50 (Zika virus [5]; veroe6/tmprss2) of the same molecule?
A: Its EC50 is 0.903 µM and > 5.56 µM.

Q: And the EC50 (Zika virus [6])?
A: The EC50 was greater than 50 µM.

Q: What about the EC90 (Zika virus [6]; VeroE6/TMPRSS2, Maximum measured 627.464 %, Minimum measured 75.729 %) of the same molecule?
A: Its EC90 is greater than 50 µM.

Q: And the EC50 (Zika virus [7]; Vero C1008)?
A: The EC50 was greater than 3.12 µM.

Q: And the EC90 (Zika virus [7]; Vero C1008, Baseline response 0 %, Hill slope 16.084, Maximum measured 41.192 %, Maximum response 100 %, Minimum measured -3.993 %, R squared 0.961)?
A: Its EC90 is greater than 3.12 µM.

Q: And the EC50 (dengue virus type 2 [8])?
A: Its EC50 is less than 0.023 µM.

Q: And the EC90 (dengue virus type 2 [8]; Hill slope -0.25, Maximum measured 56.738 %, Minimum measured 21.854 %, R squared 0.324)?
A: The EC90 was greater than 5.56 µM.

Q: How did the EC50 (dengue virus type 2 [1]) turn out when `CCCCCC(=O)N[C@H](C(=O)NCc1cccc(CN)c1)c1ccc(OCc2ccccc2)cc1` was run?
A: The EC50 was greater than 18 µM.

Q: Which results are given for `O=C(Nc1cc(Cl)cc(C(=O)Nc2ccc3c(c2)CNC3)c1)OCc1ccccc1`?
A: EC50 (dengue virus type 2 [2]; Dengue virus, Vero C1008): > 50 µM; EC90 (dengue virus type 2 [2]; Dengue virus, Vero C1008, Maximum measured 108.699 %, Minimum measured 64.199 %): > 50 µM; EC90 (dengue virus type 2 [4]; Hill slope -0.262, Maximum measured 88.903 %, Minimum measured 51.493 %, R squared 0.387): > 5.56 µM; EC50 (dengue virus type 2 [4]; Dengue virus, VeroE6/TMPRSS2): > 3.33 µM; EC90 (dengue virus type 2 [4]; Dengue virus, VeroE6/TMPRSS2, Hill slope 0.742, Maximum measured 298.531 %, Minimum measured 53.657 %, R squared 0.04): > 3.33 µM; EC50 (dengue virus type 2 [4]; veroe6/tmprss2): > 5.56 µM; EC90 (Zika virus [5]; Baseline response 0 %, Hill slope -10.107, Maximum measured 106.671 %, Maximum response 100 %, Minimum measured 12.006 %, R squared 0.759): > 5.56 µM; EC50 (Zika virus [5]; Zika virus, VeroE6/TMPRSS2): > 3.33 µM; EC90 (Zika virus [5]; Zika virus, VeroE6/TMPRSS2, Baseline response 0 %, Hill slope 0.615, Maximum measured 150.152 %, Maximum response 100 %, Minimum measured 64.245 %, R squared 0.072): > 3.33 µM; EC50 (Zika virus [5]; veroe6/tmprss2): 4.56 µM; EC50 (Zika virus [6]): > 50 µM; EC90 (Zika virus [6]; VeroE6/TMPRSS2, Maximum measured 887.776 %, Minimum measured 72.98 %): > 50 µM; EC50 (dengue virus type 2 [8]): 0.61 µM; EC90 (dengue virus type 2 [8]; Hill slope -0.704, Maximum measured 114.373 %, Minimum measured 21.903 %, R squared 0.634): > 5.56 µM

Q: For `CCCCCC(=O)N[C@H](C(=O)N1CCCCC1)c1ccc(OCc2ccccc2)cc1`, which EC50 (dengue virus type 2 [1]) is on record?
A: Its EC50 is greater than 19 µM.

Q: Which results are given for `O=C(O)c1cc(Oc2ccc(F)cc2)c(F)cc1NS(=O)(=O)c1ccc(Oc2ccccc2Cl)cc1`?
A: EC50 (dengue virus type 2 [1]): > 20 µM; EC50 (dengue virus type 2 [4]; Dengue virus, VeroE6/TMPRSS2): > 16.7 µM; EC90 (dengue virus type 2 [4]; Dengue virus, VeroE6/TMPRSS2, Hill slope -0.235, Maximum measured 89.319 %, Minimum measured 56.356 %, R squared 0.164): > 16.7 µM; EC90 (Zika virus [5]; Baseline response 0 %, Hill slope -0.477, Maximum measured 92.293 %, Maximum response 50 %, Minimum measured 32.859 %, R squared 0.014): > 16.7 µM; EC90 (Zika virus [5]; Zika virus, VeroE6/TMPRSS2, Baseline response 0 %, Hill slope -0.324, Maximum measured 79.955 %, Maximum response 100 %, Minimum measured 28.499 %, R squared 0.691): > 16.7 µM

Q: How did the EC50 (dengue virus type 2 [1]) turn out when `NCc1cccc(NC(=O)C[C@@H](NC(=O)OCc2ccccc2)c2ccc(OCc3ccccc3)cc2)c1` was run?
A: Its EC50 is greater than 6.1 µM.
